The nature of data set [1]: Solubility of compound at pH 6.8 by RapidFire mass spectrometry. The class given is physicochemical. The conditions noted are these: buffer.
A short description of data set [2]: Solubility of the compound in FaSSIF at pH 6.8 by RapidFire mass spectrometry. The conditions noted are these: simulated gi fluid. The class given is ADME.
Data set [3] is described as follows: Lipophilicity, logD of the compound in 1-octanol and phosphate buffer by tandem mass spectrometer analysis. In kind it is physicochemical. The settings on record: 1-octanol/phosphate buffer.
The nature of data set [4]: Clearance in rat liver microsomes. In kind it is ADME, Microsome. (In general: Liver microsomes are vesicles of endoplasmic reticulum, rich in cytochrome P450 enzymes.)
Data set [5] deals with Cytochrome P450 3A4 (Homo sapiens, UniProt P08684). Kind of data set: (§1) Inhibition of CYP3A4 (unknown origin). In kind it is ADME.
Cytochrome P450 3A4, sequence (P08684 whole entry): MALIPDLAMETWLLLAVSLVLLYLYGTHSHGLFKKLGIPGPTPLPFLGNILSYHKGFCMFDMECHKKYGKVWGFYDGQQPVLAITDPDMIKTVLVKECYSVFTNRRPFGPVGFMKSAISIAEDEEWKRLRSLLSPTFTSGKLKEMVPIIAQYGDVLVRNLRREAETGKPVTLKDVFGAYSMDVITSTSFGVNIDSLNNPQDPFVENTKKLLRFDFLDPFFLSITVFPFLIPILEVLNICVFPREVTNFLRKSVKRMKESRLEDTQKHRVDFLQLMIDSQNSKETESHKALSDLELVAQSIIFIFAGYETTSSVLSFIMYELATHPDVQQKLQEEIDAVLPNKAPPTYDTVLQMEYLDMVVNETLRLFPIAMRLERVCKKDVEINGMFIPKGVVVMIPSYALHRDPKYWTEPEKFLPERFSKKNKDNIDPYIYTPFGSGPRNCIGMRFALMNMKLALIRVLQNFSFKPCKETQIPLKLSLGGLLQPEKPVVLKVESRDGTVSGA
The target in data set [6] is hERG (KCNH2) (Homo sapiens, UniProt Q12809). Kind of data set: (§2) Inhibition of hERG channel. The settings on record: human. The class given is toxicity. For orientation: Block of hERG is tested as a sign of cardiac risk.
hERG (KCNH2), sequence (Q12809 whole entry): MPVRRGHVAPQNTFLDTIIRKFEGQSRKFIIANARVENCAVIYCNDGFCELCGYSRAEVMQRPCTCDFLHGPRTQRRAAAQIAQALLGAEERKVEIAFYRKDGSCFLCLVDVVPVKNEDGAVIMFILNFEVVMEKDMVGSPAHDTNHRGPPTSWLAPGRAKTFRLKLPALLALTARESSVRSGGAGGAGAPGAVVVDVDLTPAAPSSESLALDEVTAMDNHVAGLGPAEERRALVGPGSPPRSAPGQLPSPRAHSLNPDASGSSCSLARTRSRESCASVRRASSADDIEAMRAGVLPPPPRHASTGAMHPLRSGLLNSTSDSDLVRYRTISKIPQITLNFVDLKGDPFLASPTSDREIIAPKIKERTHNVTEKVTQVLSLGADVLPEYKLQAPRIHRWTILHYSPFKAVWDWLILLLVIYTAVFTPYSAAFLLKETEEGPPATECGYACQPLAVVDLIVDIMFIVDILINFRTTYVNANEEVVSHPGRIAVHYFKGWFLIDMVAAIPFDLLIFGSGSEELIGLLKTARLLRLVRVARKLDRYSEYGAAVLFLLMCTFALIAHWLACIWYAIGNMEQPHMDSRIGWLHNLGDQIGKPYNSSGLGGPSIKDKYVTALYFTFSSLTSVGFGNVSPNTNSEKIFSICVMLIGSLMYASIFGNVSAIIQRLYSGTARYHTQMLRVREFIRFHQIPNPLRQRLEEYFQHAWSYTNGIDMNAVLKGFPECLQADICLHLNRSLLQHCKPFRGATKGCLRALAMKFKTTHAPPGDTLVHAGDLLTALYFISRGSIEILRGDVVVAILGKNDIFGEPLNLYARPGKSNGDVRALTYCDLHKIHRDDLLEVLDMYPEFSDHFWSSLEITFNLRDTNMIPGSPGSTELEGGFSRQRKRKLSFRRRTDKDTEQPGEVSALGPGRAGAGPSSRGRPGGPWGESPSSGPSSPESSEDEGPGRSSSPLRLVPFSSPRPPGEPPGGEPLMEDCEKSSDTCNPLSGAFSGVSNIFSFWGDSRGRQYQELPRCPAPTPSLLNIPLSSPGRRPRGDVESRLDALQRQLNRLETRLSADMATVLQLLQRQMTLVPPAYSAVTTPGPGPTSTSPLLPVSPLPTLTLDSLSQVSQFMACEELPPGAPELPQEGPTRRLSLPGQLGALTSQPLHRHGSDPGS
The target of data set [7] is T1, Beta-2 adrenergic receptor (Bos taurus, UniProt Q28044). Kind of data set: Binding affinity to bovine lung membrane adrenergic beta-2 receptor. In kind it is cell membranes.
T1 sequence (Q28044 whole entry): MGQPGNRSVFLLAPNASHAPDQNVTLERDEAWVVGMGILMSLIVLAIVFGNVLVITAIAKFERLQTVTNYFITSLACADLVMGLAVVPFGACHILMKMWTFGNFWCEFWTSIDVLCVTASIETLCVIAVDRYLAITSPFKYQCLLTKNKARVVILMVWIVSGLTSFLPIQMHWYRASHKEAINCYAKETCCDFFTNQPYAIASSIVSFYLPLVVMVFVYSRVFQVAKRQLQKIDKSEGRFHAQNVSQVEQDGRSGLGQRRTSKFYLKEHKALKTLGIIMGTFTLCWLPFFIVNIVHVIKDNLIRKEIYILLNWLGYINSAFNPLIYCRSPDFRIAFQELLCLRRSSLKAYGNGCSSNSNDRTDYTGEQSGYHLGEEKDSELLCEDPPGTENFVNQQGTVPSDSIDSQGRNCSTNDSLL
In data set [8] the target is T1, Beta-2 adrenergic receptor. Kind of data set: Antagonist activity at bovine lung membrane adrenergic beta-2 receptor. The class given is cell membranes.
Data set [9] deals with T2, Beta-1 adrenergic receptor (Rattus norvegicus, UniProt P18090).
T2 sequence (P18090 whole entry): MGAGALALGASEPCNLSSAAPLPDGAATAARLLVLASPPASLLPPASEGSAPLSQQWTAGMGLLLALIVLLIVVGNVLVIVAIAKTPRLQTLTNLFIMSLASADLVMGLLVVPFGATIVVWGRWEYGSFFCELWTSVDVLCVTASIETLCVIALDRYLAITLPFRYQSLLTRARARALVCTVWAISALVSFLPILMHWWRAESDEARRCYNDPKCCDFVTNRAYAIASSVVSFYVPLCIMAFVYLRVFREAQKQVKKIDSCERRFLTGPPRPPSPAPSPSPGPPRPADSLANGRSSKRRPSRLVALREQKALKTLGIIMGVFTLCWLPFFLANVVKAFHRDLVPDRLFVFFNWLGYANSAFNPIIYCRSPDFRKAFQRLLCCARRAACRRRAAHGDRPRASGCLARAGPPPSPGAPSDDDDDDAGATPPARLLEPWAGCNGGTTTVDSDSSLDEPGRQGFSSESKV
Data set [10] concerns the target T2, Beta-1 adrenergic receptor. The source holds these as a separate data set.
A short description of data set [11]: physchem. The settings on record: octanol/PBS, pH 7.6.
For data set [12], the target named is Vasopressin V1a receptor (Homo sapiens, UniProt P37288).
Vasopressin V1a receptor, sequence (P37288 whole entry): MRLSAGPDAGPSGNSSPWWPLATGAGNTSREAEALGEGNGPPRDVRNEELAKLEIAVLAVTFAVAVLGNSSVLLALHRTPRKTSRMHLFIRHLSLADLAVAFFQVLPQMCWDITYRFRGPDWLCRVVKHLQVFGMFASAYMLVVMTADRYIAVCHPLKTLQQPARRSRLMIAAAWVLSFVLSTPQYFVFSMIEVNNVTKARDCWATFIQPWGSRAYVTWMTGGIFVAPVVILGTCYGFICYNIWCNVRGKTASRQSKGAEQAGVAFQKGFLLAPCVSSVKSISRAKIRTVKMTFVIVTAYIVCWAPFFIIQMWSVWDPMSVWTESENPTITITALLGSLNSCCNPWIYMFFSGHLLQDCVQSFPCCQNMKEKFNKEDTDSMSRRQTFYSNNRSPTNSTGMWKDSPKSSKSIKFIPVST
A short description of data set [13]: in vitro. The settings on record: human, liver microsomes.
Data set [14] in a line: in vitro. The settings on record: rat, liver microsomes.
Data set [15] can be described thus: in vitro. The settings on record: mouse, liver microsomes.
Data set [16] can be described thus: physchem. The conditions noted are these: buffer, pH 7.4.
Data set [17] addresses Voltage-gated inwardly rectifying potassium channel KCNH2 (Homo sapiens, UniProt Q12809). Described as §2. The class given is toxicity.
Data set [18] deals with CYP3A4 (Homo sapiens, UniProt P08684). The description is as §1. In kind it is ADME.
CYP3A4, sequence (P08684 whole entry): as the sequence (P08684 whole entry) above
The subject of data set [19] is Hepatitis C virus. Kind of data set: Antiviral activity against HCV GT3a-genotype assessed as inhibition of viral replication. In kind it is functional, organism-based, Hepacivirus hominis.
In data set [20] the test system is Hepatitis C virus. Kind of data set: Antiviral activity against HCV GT2a-genotype assessed as inhibition of viral replication. The class given is functional, organism-based, Hepacivirus hominis.
The test system of data set [21] is Hepatitis C virus. Kind of data set: Antiviral activity against HCV GT4a-genotype assessed as inhibition of viral replication. In kind it is functional, organism-based, Hepacivirus hominis.
In data set [22] the test system is Hepatitis C virus. Kind of data set: Antiviral activity against HCV GT5a-genotype assessed as inhibition of viral replication. In kind it is functional, organism-based, Hepacivirus hominis.
The subject of data set [23] is Hepatitis C virus. Kind of data set: microbe, parasite or virus in culture. The settings on record: GT1a-genotype.
For data set [24], the system named is Hepatitis C virus. Kind of data set: microbe, parasite or virus in culture. The conditions noted are these: GT1b-genotype.
Data set [25] can be described thus: Inhibition of human rhinovirus 3C protease. Also noted: species or system Human rhinovirus sp.
Data set [26] deals with Human rhinovirus sp. Kind of data set: Inhibition of human rhinovirus 3C protease assessed as kobs/[I].
A short description of data set [27]: Half life in human plasma. The class given is ADME, cell-free.
Data set [28] in a line: Aqueous solubility of compound. In kind it is physicochemical.
A short description of data set [29]: in vitro. The conditions noted are these: human, liver microsomes. This is another data set of the same source.
The nature of data set [30]: in vitro. The settings on record: human, Caco-2.
In data set [31] the test system is Influenza A virus. Kind of data set: Antiviral activity against Influenza A virus A/PR/8/34 (PR8) strain infected in MDCK cells assessed as reduction in viral infection incubated for 72 hrs by crystal violet staining based assay. In kind it is functional, organism-based.
Data set [32] addresses Polymerase acidic protein (Influenza A virus (A/Puerto Rico/8/1934(H1N1)), UniProt P03433).
Data set [33] can be described thus: in vitro. The settings on record: human, Caco-2. The source holds these as a separate data set.
The conditions of data set [34]: human, microsomes.

These results are taken from ChEMBL document CHEMBL5244278, “Bioisosteres of the Phenyl Ring: Recent Strategic Applications in Lead Optimization and Drug Design” (J Med Chem, 2021).

In general, solubility refers to how much of the substance goes into solution per volume. Low values mean little dissolved substance, high ones much dissolved substance. Usually logD stands for the decadic logarithm of the distribution of all forms, ionised or not, between an organic phase and buffer at a given pH. A lower logD goes with lower lipophilicity. The term IC50 denotes the concentration that gives 50% inhibition. In general, Ki refers to a measure of affinity in units of concentration, obtained from inhibition or displacement. As usually defined, the microsomal CLint is the capacity of the preparation to metabolise the compound, expressed as a volume cleared per time. Low readings indicate slow turnover, high ones rapid turnover. Usually kinetic solubility stands for the concentration staying in solution when a stock, usually in DMSO, is diluted into the medium. The term EC50 denotes the midpoint of the concentration-response curve. What is called half-life is how long it takes for the measured level to halve. Low values mean fast loss, high ones slow loss. As a reminder, the fraction remaining is the share of the starting amount still present when the sample was taken. As a reminder, the Papp A→B is the apparent permeability from the apical to the basolateral side of a cell layer. A lower Papp A→B goes with slow passage. By efflux ratio is commonly meant the permeability from basolateral to apical divided by that in the opposite direction, in the common usage.

SMILES strings stand for the structures. In brackets after ≈: the same amount, converted by molar mass.

Voltage-gated inwardly rectifying potassium channel KCNH2, sequence (Q12809 whole entry): as the sequence (Q12809 whole entry) above

Regarding `O=C(Cc1ccc(B2C=CC=CN2)cc1)Nc1cc(C2CC2)[nH]n1`, the results for the solubility in data set [1] and in [2] were 13 nM (≈ 0.00414 µg/mL) and 30 nM (≈ 0.00955 µg/mL), respectively. In data set [3], the logD came to 3.9. Further, in data set [4], the CLhep predicted is 48 mL/min/kg. Also, the IC50 was over 20 µM in data set [5] and over 30 µM in data set [6].

Consider `CCO/N=C/C(O)CNC(C)(C)C` (stereo not drawn), for which the Ki in [7] and in data set [9] was 850 nM each time. For the same molecule, the IC50 was 269 nM in [8] and 8.32 µM in data set [10].

Consider `O=C(CCCCCCC(=O)Nc1ccccc1)NO` [VORINOSTAT], for which the logD in [11] was 0.99.

For `Clc1cnc2n1CCCc1nnc(C3CCN(c4ccccn4)CC3)n1-2`, the Ki in data set [12] amounted to 140 nM. Moreover, the microsomal CLint in data set [13] amounted to 4 µL/min/mg; in data set [14] it was 32 µL/min/mg; in [15] it was 33 µL/min/mg. The kinetic solubility in data set [16] worked out at 93.8 µM (≈ 34.7 µg/mL).

For the molecule `O=C(NCCS(=O)(=O)c1ccc(C(F)(F)F)cn1)c1ccc(B2C=CC=CN2)cc1`, the solubility in data set [1] is under 4 nM; in data set [2] it was 6 nM (≈ 0.00261 µg/mL). The molecule further came in with a logD in [3] of 3.5. In addition, the CLhep predicted in [4] was 53 mL/min/kg. Also, the IC50 is over 20 µM in data set [5] and over 30 µM in [17].

As for `O=C(Cc1ccc(-c2ccccc2)cc1)Nc1cc(C2CC2)[nH]n1`, the solubility in data set [1] is under 4 nM; in data set [2], 6 nM (≈ 0.0019 µg/mL). The same molecule returned a logD in [3] of 4.4. Also, the CLhep predicted in [4] was 48 mL/min/kg. The IC50 in data set [18] is over 20 µM; in data set [6], over 30 µM.

As to `COC(=O)N[C@H](C(=O)N1CCC[C@H]1c1nc2cc(-c3csc4c(-c5ccc(-c6c[nH]c([C@@H]7CCCN7C(=O)[C@H](NC(=O)OC)c7ccccc7)n6)cc5)csc34)ccc2[nH]1)C(C)C`, the EC50 stood at 0.1 nM in data set [19]; 2 pM in [20]; 2 pM in [21]; 2 pM in data set [22]; 2 pM in [23]; 2 pM in [24].

With `C#CC[C@@H](C(=O)N[C@H](/C=C/C(=O)OCC)C[C@@H]1CCNC1=O)n1cccc(NC(=O)c2cc(C)on2)c1=O` [IMOCITRELVIR], the EC50 in [25] came out at 58 nM. Further, the Ratio in data set [26] is 223000 M/s. Besides, the half-life in data set [27] was 396 min. In data set [28], the concentration in solution (solubility) was 377 µg/mL (≈ 720 µM). In data set [29], the amount remaining at 0.5 h was 60%. The Papp A→B in data set [30] is 6 ×10⁻⁶ cm/s.

On to `CCN1CCC(Cc2ccc(Cl)cc2)(C(=O)/C=C(\O)C(=O)O)CC1`, for which the IC50 in data set [31] was 1100 nM. The same molecule displayed a Ki in data set [32] of 90 nM.

Turning to `Clc1ccc2c(c1)CCCc1nnc(C3CCN(c4ccccn4)CC3)n1-2`, the efflux ratio in data set [33] stood at 1. This molecule came in with a kinetic solubility in [16] of 8.9 µM (≈ 3.38 µg/mL).

The molecule `Clc1cnc2n1CCCc1nnc([C@H]3CC[C@H](Oc4ccccn4)CC3)n1-2` registered a Ki in data set [12] of 14 nM. Besides, in data set [34], the CLH was 1 µL/min/mg. Also, the Papp A→B in data set [30] was determined as 41 ×10⁻⁶ cm/s. Moreover, in [16], the kinetic solubility is 49.6 µM (≈ 19.1 µg/mL).
